How the values were obtained:
[1] = molecular target: human autoBACE-2 (Homo sapiens (Human), UniProt Q9Y5Z0); assay: BACE-2 assay (BACE-HTRF, time-resolved endpoint proteolysis); format: biochemical; conditions: Ki calculated from IC50 using the Cheng-Prusoff equation; read-out: BACE2 Ki
Experimental: Inhibitor IC50s at purified human autoBACE-2 are determined in a time-resolved endpoint proteolysis assay that measures hydrolysis of the QSY7-[…]-Eu-amide FRET peptide substrate (BACE-HTRF assay). […] DMSO is present at 5% final concentration in the assay. Following laser excitation of sample wells at 320 nm, the fluorescence signal at 620 nm is collected for 400 ms following a 50 μs delay on a RUBYstar HTRF plate reader (BMG Labtechnologies). Raw RFU data is normalized to maximum (1.0 nM BACE/DMSO) and minimum (no enzyme/DMSO) RFU values. […] The Ki values are calculated from the IC50 using the Cheng-Prusoff equation.

[2] = molecular target: soluble human BACE1 catalytic domain (Homo sapiens (Human), UniProt P56817); assay: BACE1 HTRF FRET assay; format: biochemical; conditions: Ki calculated from IC50 using the Cheng-Prusoff equation
Excerpt: Na^+-Acetate pH 5.0; 1% Brij-35; Glycerol; Dimethyl Sulfoxide (DMSO); Recombinant human soluble BACE1 catalytic domain (>95% pure); APP Swedish mutant peptide substrate (QSY7-APP^swe-Eu): QSY7-[…]-Europium-amide.
A homogeneous time-resolved FRET assay can be used to determine IC50 values for inhibitors of the soluble human BACE1 catalytic domain. This assay monitors the increase of 620 nm fluorescence that resulted from BACE1 cleavage of an APPswedish APP^swe mutant peptide FRET substrate (QSY7-[…]-Europium-amide). This substrate contains an N-terminal QSY7 moiety that serves as a quencher of the C-terminal Europium fluorophore (620 nm Em). In the absence of enzyme activity, 620 nm fluorescence is low in the assay and increased linearly over 3 hours in the presence of uninhibited BACE1 enzyme Inhibition of BACE1 cleavage of the QSY7-APP^swe-Eu substrate by inhibitors is manifested as a suppression of 620 nm fluorescence.
Varying concentrations of inhibitors at 3× the final desired concentration in a volume of 10 ul are preincubated with purified human BACE1 catalytic domain (3 nM in 10 μl) for 30 minutes at 30° C. in reaction buffer containing 20 mM Na-Acetate pH 5.0, 10% glycerol, 0.1% Brij-35 and 7.5% DSMO. Reactions are initiated by addition of 10 μl of 600 nM QSY7-APP^swe-Eu substrate (200 nM final) to give a final reaction volume of […] in a 384 well Nunc HTRF plate. The reactions are incubated at 30° C. for 1.5 hours. The 620 nm fluorescence is then read on a Rubystar HTRF plate reader (BMG Labtechnologies) using a 50 millisecond delay followed by a 400 millisecond acquisition time window. Inhibitor IC50 values are derived from non-linear regression analysis of concentration response curves.

human autoBACE-2, sequence (Q9Y5Z0 63-473 limits assumed): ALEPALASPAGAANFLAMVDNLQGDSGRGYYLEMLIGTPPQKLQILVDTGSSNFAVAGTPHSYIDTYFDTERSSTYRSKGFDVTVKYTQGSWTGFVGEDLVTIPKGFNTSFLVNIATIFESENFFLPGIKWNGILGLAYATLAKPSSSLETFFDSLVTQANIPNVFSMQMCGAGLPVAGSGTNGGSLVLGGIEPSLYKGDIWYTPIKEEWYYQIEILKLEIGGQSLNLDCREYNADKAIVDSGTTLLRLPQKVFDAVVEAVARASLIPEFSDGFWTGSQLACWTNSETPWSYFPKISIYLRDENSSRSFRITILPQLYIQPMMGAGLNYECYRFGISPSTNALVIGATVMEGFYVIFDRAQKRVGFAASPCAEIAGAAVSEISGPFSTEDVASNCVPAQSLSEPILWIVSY
soluble human BACE1 catalytic domain, sequence (P56817 75-416): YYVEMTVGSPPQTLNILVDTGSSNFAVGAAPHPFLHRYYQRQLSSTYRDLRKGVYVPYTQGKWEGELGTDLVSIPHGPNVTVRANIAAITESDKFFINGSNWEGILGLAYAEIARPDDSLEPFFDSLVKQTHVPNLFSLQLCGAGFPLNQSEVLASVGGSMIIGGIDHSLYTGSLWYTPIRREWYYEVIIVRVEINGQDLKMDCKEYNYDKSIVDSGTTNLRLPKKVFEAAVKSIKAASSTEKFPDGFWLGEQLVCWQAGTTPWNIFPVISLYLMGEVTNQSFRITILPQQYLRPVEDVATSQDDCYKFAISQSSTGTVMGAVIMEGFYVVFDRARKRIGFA

Row | SMILES | Ki [1] | Ki [2]
1 | CN1C(=N)N[C@](C)(c2sc(-c3cccc(-c4nnco4)c3)cc2Cl)CS1(=O)=O [Example 1] | 6 nM | 1.6 nM
2 | CN1C(=N)N[C@](C)(c2sc(-c3cccc(-c4nnco4)c3)cc2F)CS1(=O)=O [Example 2] | 13.8 nM | 1.7 nM
3 | CN1C(=N)N[C@](C)(c2sc(-c3cncc(-c4nnco4)c3)cc2F)CS1(=O)=O [Example 3] | 25.9 nM | 7.5 nM
4 | CN1C(=N)N[C@](C)(c2sc(-c3cccc(-c4cc[nH]n4)c3)cc2F)CS1(=O)=O [Example 4] | 0.35 nM | 10.7 nM
5 | CN1C(=N)N[C@](C)(c2sc(-c3cncc(-c4ncco4)c3)cc2Cl)CS1(=O)=O [Example 9] | 0.31 nM | 6.9 nM
6 | CN1C(=N)N[C@](C)(c2sc(-c3cncc(-c4ncco4)c3)cc2F)CS1(=O)=O [Example 10] | 1 nM | 15.7 nM
7 | CN1C(=N)N[C@](C)(c2sc(-c3cccc(-c4ccno4)c3)cc2Cl)CS1(=O)=O [Example 13] | 2.4 nM | 6.5 nM
8 | Cc1nnc(-c2cccc(-c3cc(Cl)c([C@]4(C)CS(=O)(=O)N(C)C(=N)N4)s3)c2)o1 [Example 15] | 3.8 nM | 
9 | Cc1nnc(-c2cccc(-c3cc(F)c([C@]4(C)CS(=O)(=O)N(C)C(=N)N4)s3)c2)o1 [Example 16] | 4.2 nM | 232 nM
10 | CN1C(=N)N[C@](C)(c2cc(-c3cccc(-c4nnco4)c3)cs2)CS1(=O)=O [Example 19] | 52 nM | 19.2 nM
11 | CN1C(=N)N[C@](C)(c2sc(-c3cncc(-c4cnco4)c3)cc2Cl)CS1(=O)=O [Example 20] | 8.9 nM | 11.9 nM
12 | CN1C(=N)N[C@](C)(c2sc(-c3cncc(-c4cnco4)c3)cc2F)CS1(=O)=O [Example 21] | 16 nM | 18.4 nM
13 | CN1C(=N)N[C@](C)(c2cc(-c3cncc(-c4cnco4)c3)cs2)CS1(=O)=O [Example 22] | 98 nM | 85.9 nM
14 | CN1C(=N)N[C@](C)(c2cc(-c3cc(F)cc(-c4cnco4)c3)cs2)CS1(=O)=O [Example 24] | 18 nM | 81 nM
15 | CN1C(=N)N[C@](C)(c2ncc(-c3cccc(-c4ncco4)c3)s2)CS1(=O)=O [Example 26] | 5.7 nM | 43.6 nM
16 | CN1C(=N)N[C@](C)(c2ncc(-c3cccc(-c4nnco4)c3)s2)CS1(=O)=O [Example 27] | 152 nM | 13.8 nM
17 | CN1C(=N)N[C@](C)(c2sc(-c3cc(F)cc(-c4nnco4)c3)cc2Cl)CS1(=O)=O [Example 28] | 0.28 nM | 0.5 nM
18 | CN1C(=N)N[C@](C)(c2sc(-c3cc(F)cc(-c4nnco4)c3)cc2F)CS1(=O)=O [Example 29] | 1.3 nM | 1.2 nM
19 | CN1C(=N)N[C@](C)(c2cc(-c3cc(F)cc(-c4nnco4)c3)ccc2F)CS1(=O)=O [Example 30] | 235 nM | 869 nM
20 | CN1C(=N)N[C@](C)(c2sc(-c3cc(-c4nnco4)ccc3F)cc2Cl)CS1(=O)=O [Example 31] | 4.2 nM | 1.7 nM
21 | CN1C(=N)N[C@](C)(c2sc(-c3cc(-c4nnco4)ccc3F)cc2F)CS1(=O)=O [Example 32] | 3.9 nM | 1.1 nM
22 | CN1C(=N)N[C@](C)(c2sc(-c3ccc(F)c(-c4nnco4)c3)cc2Cl)CS1(=O)=O [Example 33] | 10 nM | 5.5 nM
23 | CN1C(=N)N[C@](C)(c2sc(-c3ccc(F)c(-c4nnco4)c3)cc2F)CS1(=O)=O [Example 34] | 11 nM | 6.7 nM
24 | CN1C(=N)N[C@](C)(c2sc(-c3cccc(-c4nnco4)c3F)cc2Cl)CS1(=O)=O [Example 35] | 30 nM | 60.7 nM

Row | SMILES | Ki [1] | Ki [2]
25 | CN1C(=N)N[C@](C)(c2sc(-c3cccc(-c4nnco4)c3F)cc2F)CS1(=O)=O [Example 36] | 247 nM | 1150 nM
26 | Cc1noc(-c2cccc(-c3cc(Cl)c([C@]4(C)CS(=O)(=O)N(C)C(=N)N4)s3)c2)n1 [Example 37] | 4.6 nM | 25.9 nM
27 | CN1C(=N)N[C@](C)(c2sc(-c3cccc(-c4nc(C5CC5)no4)c3)cc2Cl)CS1(=O)=O [Example 39] | 9.9 nM | 419 nM
28 | CN1C(=N)N[C@](C)(c2sc(-c3cccc(-c4nc(C5CC5)no4)c3)cc2F)CS1(=O)=O [Example 40] | 9.5 nM | 623 nM
29 | CN1C(=N)N[C@](C)(c2cc(-c3cc(F)cc(-c4nnco4)c3)cs2)CS1(=O)=O [Example 43] | 6.5 nM | 8.8 nM
30 | CN1C(=N)N[C@](C)(c2sc(-c3cccc(-c4noc(C5CC5)n4)c3)cc2F)CS1(=O)=O [Example 45] | 3 nM | 323 nM
31 | CN1C(=N)N[C@](C)(c2sc(-c3cccc(-c4ncno4)c3)cc2F)CS1(=O)=O [Example 48] | 0.63 nM | 0.87 nM
32 | Cc1noc(-c2cc(-c3cc(Cl)c([C@]4(C)CS(=O)(=O)N(C)C(=N)N4)s3)ccn2)n1 [Example 49] | 1.1 nM | 18.7 nM
33 | Cc1noc(-c2cc(-c3cc(F)c([C@]4(C)CS(=O)(=O)N(C)C(=N)N4)s3)ccn2)n1 [Example 50] | 2.3 nM | 56.3 nM
34 | CN1C(=N)N[C@](C)(c2sc(-c3ccnc(-c4nc(C5CC5)no4)c3)cc2Cl)CS1(=O)=O [Example 51] | 2.5 nM | 127 nM
35 | CN1C(=N)N[C@](C)(c2sc(-c3ccnc(-c4nc(C5CC5)no4)c3)cc2F)CS1(=O)=O [Example 52] | 17 nM | 498 nM
36 | Cc1nnc(-c2cccc(-c3cc(Cl)c([C@]4(C)CS(=O)(=O)N(C)C(=N)N4)s3)c2)o1 [Example 53] |  | 129 nM
37 | CN1C(=N)N[C@](C)(c2sc(-c3ccnc(-c4ccccc4)c3)cc2F)CS1(=O)=O [Example 54] | 12 nM | 132 nM
38 | CN1C(=N)N[C@](C)(c2sc(-c3ccnc(-c4cncnc4)c3)cc2F)CS1(=O)=O [Example 55] | 212 nM | 1250 nM
39 | CN1C(=N)N[C@](C)(c2sc(-c3ccnc(-c4cnco4)c3)cc2F)CS1(=O)=O [Example 56] | 20 nM | 23.5 nM
40 | CN1C(=N)N[C@](C)(c2sc(-c3cncc(-c4nnc(C5CC5)o4)c3)cc2Cl)CS1(=O)=O [Example 57] | 44 nM | 566 nM
41 | CN1C(=N)N[C@](C)(c2sc(-c3cc(-c4nnco4)ncc3F)cc2Cl)CS1(=O)=O [Example 58] | 66 nM | 68.3 nM
42 | CN1C(=N)N[C@](C)(c2sc(-c3cc(-c4nnco4)ncc3F)cc2F)CS1(=O)=O [Example 59] | 92 nM | 107 nM
43 | CN1C(=N)N[C@](C)(c2sc(-c3cccc(-n4cccn4)c3)cc2Cl)CS1(=O)=O [Example 60] | 1.6 nM | 57 nM
44 | CN1C(=N)N[C@](C)(c2sc(-c3cccc(N4CCS(=O)(=O)CC4)c3)cc2Cl)CS1(=O)=O [Example 61] | 42 nM | 693 nM
45 | CN1C(=N)N[C@](C)(c2sc(-c3cccc(-c4ccccc4)c3)cc2Cl)CS1(=O)=O [Example 62] | 1.6 nM | 161 nM
46 | CN1C(=N)N[C@](C)(c2sc(-c3cccc(-n4nccn4)c3)cc2Cl)CS1(=O)=O [Example 63] | 4.7 nM | 30.3 nM
47 | CN1C(=N)N[C@](C)(c2sc(-c3ccc(-c4cccnc4)cc3)cc2Cl)CS1(=O)=O [Example 64] | 1040 nM | 2100 nM
48 | Cc1nonc1N1CCN(c2nccc3c(Cl)c([C@]4(C)CS(=O)(=O)N(C)C(=N)N4)sc23)CC1 [Example 120] | 96 nM | 
